{"source": "BindingDB's records for doi:10.1016/j.bmc.2009.03.040", "about": "(Institute For Medical Research, 2009)", "target": "T1, Lethal factor (Bacillus anthracis, UniProt P15917)", "T1 sequence (P15917 whole entry)": "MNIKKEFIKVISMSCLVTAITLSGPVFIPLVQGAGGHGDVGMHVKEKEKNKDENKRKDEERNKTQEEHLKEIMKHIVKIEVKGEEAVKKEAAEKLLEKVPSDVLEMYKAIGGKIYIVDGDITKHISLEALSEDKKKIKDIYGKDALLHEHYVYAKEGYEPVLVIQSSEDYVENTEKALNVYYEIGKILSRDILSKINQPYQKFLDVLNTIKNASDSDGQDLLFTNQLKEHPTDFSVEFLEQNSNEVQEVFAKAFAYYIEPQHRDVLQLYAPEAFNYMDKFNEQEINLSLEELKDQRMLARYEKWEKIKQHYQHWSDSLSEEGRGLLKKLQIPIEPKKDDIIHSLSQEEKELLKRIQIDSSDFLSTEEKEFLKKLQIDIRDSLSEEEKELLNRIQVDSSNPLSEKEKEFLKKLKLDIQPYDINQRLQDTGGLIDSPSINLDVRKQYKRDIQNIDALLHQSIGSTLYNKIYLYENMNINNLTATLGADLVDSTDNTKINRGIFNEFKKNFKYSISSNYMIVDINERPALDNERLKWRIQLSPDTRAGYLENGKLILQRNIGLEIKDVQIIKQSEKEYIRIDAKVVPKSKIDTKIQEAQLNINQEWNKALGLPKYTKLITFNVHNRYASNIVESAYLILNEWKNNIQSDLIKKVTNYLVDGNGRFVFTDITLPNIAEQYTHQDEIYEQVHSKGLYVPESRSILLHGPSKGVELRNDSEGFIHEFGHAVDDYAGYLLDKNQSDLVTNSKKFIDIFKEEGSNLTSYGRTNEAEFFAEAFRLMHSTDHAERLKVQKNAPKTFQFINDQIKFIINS", "experiment": "Inhibition of Bacillus anthracis lethal factor assessed as cleavage of MAPKK by fluorescence peptide cleavage assay", "data": [{"smiles": "COc1ccc(-c2ccc(S(=O)(=O)Nc3sccc3-c3nc4ccccc4s3)cc2)cc1", "note": "[N-(3-(benzo[d]thiazol-2-yl)thiophen-2-yl)-4'-methoxybiphenyl-4-sulfonamide]", "values": [{"measurement": "Ki", "value": 1000, "unit": "nM"}]}]}
